Data from PMC3700763, “First human dose-escalation study with remogliflozin etabonate, a selective inhibitor of the sodium-glucose transporter 2 (SGLT2), in healthy subjects and in subjects with type 2 diabetes mellitus” (BMC Pharmacology & Toxicology, 2013).
Read-outs that look alike come from different tables or passages of the source. Marks after values point to notes of the source that are not given here.

Columns and labels:
[1] = Plasma pharmacokinetics, healthy subjects; assay type: in vivo, human; conditions: human; for Cmax: read-out: Cmax; for AUC(0-inf): read-out: AUC(0–∞)
Method: Ten healthy subjects were evaluated in 5 study sessions, each separated by approximately 2 weeks. At each study session, subjects received either an oral dose of remogliflozin etabonate or placebo after an overnight fast. Remogliflozin etabonate doses were 20 mg, 50 mg, 150 mg, 500 mg and 1000 mg. Over the course of participation in the study, each subject received 4 of the 5 active remogliflozin etabonate doses and 1 dose of placebo (4:1 active to placebo ratio per treatment period). The available safety and PK results from each dosing period were evaluated before proceeding to the next dose level. On each dosing day, a series of 2.0 mL blood samples were collected at pre-dose and 10, 20, 30 and 45 min, and 1, 1.25, 1.5, 2, 2.5, 3, 4, 6, 8, 12, 16, and 24 h post-dose for the determination of remogliflozin etabonate, remogliflozin and GSK279782 in plasma by using high-performance liquid chromatography with tandem mass spectrometry (MS/MS) as described. Non-compartmental PK analysis of plasma concentration–time data was performed using WinNonlin Version 4.1 (Pharsight Corporation, Mountainview, CA, USA). The Cmax and Tmax were obtained directly from the data. Areas under the plasma concentration–time curves from time zero to the last quantifiable time point (AUC[0–last]) and extrapolated to infinity (AUC[0–∞]) were calculated using the log-linear trapezoidal method. The terminal plasma elimination rate-constant (λz) was estimated from log-linear regression analysis of the terminal phase of the plasma concentration–time curve, and the T½ was calculated as T½ = ln2/λz. Ratios of AUC(0–∞) remogliflozin to AUC(0–last) remogliflozin etabonate were calculated including molecular weight corrections. Safety and pharmacodynamic data were summarized using descriptive statistics. This was a small exploratory study and no formal hypothesis-testing was conducted. Dose proportionality with respect to Cmax, and AUC was assessed using the power model y = α dose^β, where y = Cmax or AUC, and α denotes a random subject effect. The exponent β in the power model will be estimated by regressing the loge-transformed PK parameters on loge dose, i.e. ln(PK parameter) = ln(α) + β * ln(dose). Dose proportionality implied that β = 1 and was assessed by estimating β and its corresponding 90% confidence interval. The power model was fitted by restricted maximum likelihood using SAS Proc Mixed.

SGLT2 = molecular target: T1, SGLT2 (Homo sapiens, UniProt P31639); assay: 24-h urine glucose excretion, T2DM subjects; assay type: in vivo; conditions: mean (SD)
T1 construct: from tissue; host or cells: kidney (proximal tubule) of living human subjects: healthy volunteers and T2DM patients
T1 sequence (P31639 1-672): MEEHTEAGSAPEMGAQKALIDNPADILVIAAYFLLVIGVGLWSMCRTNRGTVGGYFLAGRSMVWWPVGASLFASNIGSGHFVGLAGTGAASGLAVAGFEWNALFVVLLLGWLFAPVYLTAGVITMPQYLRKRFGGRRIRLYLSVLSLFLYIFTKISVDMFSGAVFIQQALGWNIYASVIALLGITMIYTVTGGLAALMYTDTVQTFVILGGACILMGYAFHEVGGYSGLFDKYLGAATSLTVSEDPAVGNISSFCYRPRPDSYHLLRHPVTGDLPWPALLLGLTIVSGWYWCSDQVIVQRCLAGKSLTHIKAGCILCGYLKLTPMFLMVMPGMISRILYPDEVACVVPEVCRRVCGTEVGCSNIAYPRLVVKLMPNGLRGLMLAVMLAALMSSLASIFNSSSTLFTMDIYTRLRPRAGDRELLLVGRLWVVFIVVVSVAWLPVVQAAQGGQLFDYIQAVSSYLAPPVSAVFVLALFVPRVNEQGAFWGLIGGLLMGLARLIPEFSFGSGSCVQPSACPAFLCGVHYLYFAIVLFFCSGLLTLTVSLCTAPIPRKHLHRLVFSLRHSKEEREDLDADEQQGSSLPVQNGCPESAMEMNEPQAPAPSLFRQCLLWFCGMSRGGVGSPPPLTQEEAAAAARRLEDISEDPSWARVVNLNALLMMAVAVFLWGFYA
Method: Urine samples were collected at pre-dose, and over a series of intervals (0–2, 2–4, 4–6, 6–8, 8–12 and 12–24 h post-dose) for the analysis of creatinine, glucose and electrolytes (Na, K and Cl). All fluid intake was recorded, as well as urine volume, over the 24 hours before and after dosing in each treatment period. Urine was tested for protein on the first morning void of day -1 and 24 h after dosing.
The percentage of filtered glucose excreted in the urine for each individual time period was calculated as the amount of glucose excreted during that time period divided by (CLCR × PG × time interval length), where CLCR is the creatinine clearance for the time interval, PG is the plasma glucose concentration closest to the midpoint of the time interval, and the time interval is the period (min) of urine collection (CLCR × PG represents the glucose filtered load). For the 24-h period, the percentage of filtered glucose excreted was calculated as the amount of glucose excreted over 24 h divided by the sum over the individual time intervals of (CLCR × PG × time interval length).

[2] = mice; cited from earlier work
[3] = plasma prodrug, healthy subjects, 50 mg oral dose, geometric mean (CV%)
[4] = plasma prodrug, healthy subjects, 150 mg oral dose, geometric mean (CV%)
[5] = plasma prodrug, healthy subjects, 500 mg oral dose, geometric mean (CV%)
[6] = plasma prodrug, healthy subjects, 1000 mg oral dose, geometric mean (CV%)

CCOC(=O)OC[C@H]1O[C@@H](Oc2nn(C(C)C)c(C)c2Cc2ccc(OC(C)C)cc2)[C@H](O)[C@@H](O)[C@@H]1O [Remogliflozin etabonate, remogliflozin etabonate]
half-life ([1]; plasma, oral, both populations, independent of dose (abstract), read-out: mean plasma T½): ~25 min
Tmax ([1]; plasma, oral, healthy subjects, 20-1000 mg, read-out: median Tmax estimates, range across doses): 31.2 to 75 min
half-life ([1]; plasma, oral, healthy subjects, 20-1000 mg, read-out: median T½ estimates, range across doses): 15.6 to 42.6 min
half-life ([1]; plasma, po, 50 mg, plasma prodrug, healthy subjects, 50 mg oral dose, geometric mean (CV%), n = 6, read-out: T½ (converted)): 21.2 min
half-life ([1]; plasma, po, 150 mg, plasma prodrug, healthy subjects, 150 mg oral dose, geometric mean (CV%), n = 6, read-out: T½ (converted)): 15.4 min
half-life ([1]; plasma, po, 500 mg, plasma prodrug, healthy subjects, 500 mg oral dose, geometric mean (CV% 27), n = 4, read-out: T½ (converted)): 15.8 min
half-life ([1]; plasma, po, 1000 mg, plasma prodrug, healthy subjects, 1000 mg oral dose, geometric mean (CV% 56), n = 7, read-out: T½ (converted)): 42.4 min
AUC(0-t) ([1]; plasma prodrug, healthy subjects, 20 mg oral dose, geometric mean (CV%), n = 5): 1.61 ng·h/mL
Cmax ([1]; plasma prodrug, healthy subjects, 20 mg oral dose, geometric mean (CV%)): 1.89 ng/mL
Tmax ([1]; plasma prodrug, healthy subjects, 20 mg oral dose, median, read-out: Tmax): 37.5 min
AUC(0-t) [1, 3]: 3.56 ng·h/mL
AUC(0-inf) ([1]; plasma prodrug, healthy subjects, 50 mg oral dose, geometric mean (CV%), n = 6): 3.7 ng·h/mL
Cmax [1, 3]: 4.98 ng/mL
Tmax ([1]; plasma prodrug, healthy subjects, 50 mg oral dose, median, read-out: Tmax): 37.5 min
AUC(0-t) [1, 4]: 9.51 ng·h/mL
AUC(0-inf) ([1]; plasma prodrug, healthy subjects, 150 mg oral dose, geometric mean (CV%), n = 6): 9.77 ng·h/mL
Cmax [1, 4]: 17.6 ng/mL
Tmax ([1]; plasma prodrug, healthy subjects, 150 mg oral dose, median, read-out: Tmax): 30.9 min
AUC(0-t) [1, 5]: 35.4 ng·h/mL
AUC(0-inf) ([1]; plasma prodrug, healthy subjects, 500 mg oral dose, geometric mean (CV%), n = 4): 36.8 ng·h/mL
Cmax [1, 5]: 41.6 ng/mL
Tmax ([1]; plasma prodrug, healthy subjects, 500 mg oral dose, median, read-out: Tmax): 75 min
AUC(0-t) [1, 6]: 107 ng·h/mL
AUC(0-inf) ([1]; plasma prodrug, healthy subjects, 1000 mg oral dose, geometric mean (CV%), n = 7): 126 ng·h/mL
Cmax [1, 6]: 144 ng/mL
Tmax ([1]; plasma prodrug, healthy subjects, 1000 mg oral dose, median, read-out: Tmax): 37.5 min
Urinary glucose excretion (SGLT2; 50 mg single dose): 384 (210) mmol
Filtered glucose excreted in urine (SGLT2; 50 mg single dose, n = 5): 15.9 (5.9)^c %
Filtered glucose excreted in urine (SGLT2; 500 mg single dose): 21.6 (9.1) %
Urinary glucose excretion (SGLT2; 500 mg single dose): 642 (256) mmol
Urinary glucose excretion [2]: concentration-dependent increase
